Target: T1, porcine pancreatic lipase (Sus scrofa, UniProt P00591)
T1 construct: gene PNLIP
T1 sequence (P00591 1-450): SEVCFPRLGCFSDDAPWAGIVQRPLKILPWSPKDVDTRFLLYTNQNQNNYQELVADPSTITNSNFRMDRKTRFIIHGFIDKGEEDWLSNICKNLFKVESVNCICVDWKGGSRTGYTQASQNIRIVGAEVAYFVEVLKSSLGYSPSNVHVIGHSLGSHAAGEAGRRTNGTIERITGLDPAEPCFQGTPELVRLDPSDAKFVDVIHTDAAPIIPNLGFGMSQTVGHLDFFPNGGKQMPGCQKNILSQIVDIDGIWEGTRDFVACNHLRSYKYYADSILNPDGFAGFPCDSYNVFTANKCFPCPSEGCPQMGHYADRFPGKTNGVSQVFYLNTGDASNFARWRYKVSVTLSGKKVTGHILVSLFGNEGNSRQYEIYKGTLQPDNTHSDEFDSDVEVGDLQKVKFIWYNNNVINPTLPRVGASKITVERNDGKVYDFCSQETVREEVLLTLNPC
Experiment: p-nitrophenyl butyrate hydrolysis assay; Lineweaver-Burk analysis
Format: biochemical

IC50 [µM]	Structure (SMILES)
16.8	CC1(C)C=Cc2c(cc(O)c3c(=O)c(-c4ccc(O)c(O)c4)coc23)O1 [compound 19, 5,3',4'-trihydroxy-2", 2"-dimethylpyrano (5",6":7,8) isoflavone]

Target: T1, porcine pancreatic lipase
Experiment: p-nitrophenyl butyrate hydrolysis assay, % inhibition at […]
Format: biochemical

Structure (SMILES)	inhibition at 100 µM [%]
O=c1c(-c2ccc(O)cc2)coc2cc(O)cc(O)c12 [compound 1, genistein]	60.7
CC(C)=CCc1c(O)cc2occ(-c3ccc(O)cc3)c(=O)c2c1O [compound 9, wighteone]	65.7
CC(C)=CCc1c(O)c(CC=C(C)C)c2occ(-c3ccc(O)c(O)c3)c(=O)c2c1O [compound 12, 5,7,3',4'-tetrahydroxy-6-8-diprenylisoflavone]	92.8
CC1(C)C=Cc2c(cc3occ(-c4ccc(O)c(O)c4)c(=O)c3c2O)O1 [compound 15, 5,3',4'-trihydroxy-6'',6''-dimethylpyrano-[2'',3'';7,6]isoflavone]	> 50

Further lines, results first:

inhibition at 100 µM [%]	Structure (SMILES)
> 50	CC(C)=CCc1c2c(c(O)c3c(=O)c(-c4ccc(O)cc4)coc13)C=CC(C)(C)O2 [compound 16, scandenone]
68.2	CC1(C)C=Cc2c(cc(O)c3c(=O)c(-c4ccc(O)cc4)coc23)O1 [compound 17, derrone]
